Laboratory results reported in patent US20190225644A1, “MRNA CAP ANALOGS AND METHODS OF MRNA CAPPING” (ModernaTX, Inc., priority 2015, published 2019).
Several values for one entry are separate records, joined by “and”; a condition that tells them apart may be missing. Equal values may be shown once. Read-outs that look alike come from different tables or passages of the source.

How the values were obtained:
HeLa Lysate [1] = experiment: Cell free translation assay, mCitrine mRNA carrying the cap analogs; type: biochemical; settings: 5-methoxy uridine modRNA
Procedure: (§1) The in vitro translation assay was conducted with the HeLa 1-step coupled IVT kit (ThermoFisher Scientific, Waltham, Mass.) according to the manufacturer's instructions to assess performance of new cap analogs as free compounds or as an integral part of capped mRNA. Cap analogs with affinity to eIF4E protein may reduce protein synthesis rate in cell-free translation. Further, RNAs containing such cap analogs (“Cap-modRNA”) show different potency of protein synthesis in cell-free translation.
The modified RNAs (“modRNAs”) of eGFP and mCitrine-degron, harboring chemical modifications on either the CAP structures, selected ribose units and/or the bases, were diluted in sterile nuclease-free water to a final amount of 500 ng in 5 uL. This volume was added to 20 uL of freshly prepared HeLa Lysate. The in vitro translation reaction was done in a standard 96-well round bottom plate (Corning, Corning, N.Y.), covered with an self-adhesive fluorescence-compatible seal (BioRad, Hercules, Calif.) at 30° C. inside the plate reader Cytation 3 (BioTek, Winooski, Vt.).
The fluorescent signal per reaction increased over time and is considered proportional to the occurring protein synthesis. Each cell-free translation reaction was monitored for 120-180 min with the following settings: eGFP protein—ex. 485 nm, em. […] 545, gain 70 or 80. The height of the reading head was set to 1 mm above the plate and a reading speed of one per sample every 17 seconds. The results of modRNAs with various caps are illustrated in FIGS. 3A-3B.
(§2) Cell free translation assays were also conducted using modRNAs comprises 5-methoxy uridine, which replaces each uridine in the RNA sequence, except otherwise specified. The results are shown in FIGS. 5A-5B and 6A-6B, and Tables 12 and 13. Table 12 discloses the measured mCitrine levels after 3 hours of a cell-free translation assay.

HeLa Lysate [2] = experiment: Cell free translation assay, hEPO mRNA carrying the cap analogs; type: biochemical; settings: 5-methoxy uridine modRNA
Procedure: In FIG. 5A, “mod mRNA” refers to a modified mRNA comprising N1-methyl pseudouridine, which replaces each uridine in the RNA sequence. FIG. 5 B presents the results of a cell free translation assay using mRNAs carrying different cap analogs, normalized to capping and concentration of each capped mRNA (see also Table 13).
as §1, §2
Table 13 discloses the hEPO levels after 3 hours of a cell-free translation assay.

T7 RNA Polymerase = T7 RNA Polymerase (Escherichia phage T7, UniProt P00573); experiment: Cotranscriptional capping of hEPO mRNA by in vitro transcription (capping fraction); type: biochemical; settings: hEPO mRNA used in the in vivo assay
T7 RNA Polymerase, sequence (P00573 whole entry): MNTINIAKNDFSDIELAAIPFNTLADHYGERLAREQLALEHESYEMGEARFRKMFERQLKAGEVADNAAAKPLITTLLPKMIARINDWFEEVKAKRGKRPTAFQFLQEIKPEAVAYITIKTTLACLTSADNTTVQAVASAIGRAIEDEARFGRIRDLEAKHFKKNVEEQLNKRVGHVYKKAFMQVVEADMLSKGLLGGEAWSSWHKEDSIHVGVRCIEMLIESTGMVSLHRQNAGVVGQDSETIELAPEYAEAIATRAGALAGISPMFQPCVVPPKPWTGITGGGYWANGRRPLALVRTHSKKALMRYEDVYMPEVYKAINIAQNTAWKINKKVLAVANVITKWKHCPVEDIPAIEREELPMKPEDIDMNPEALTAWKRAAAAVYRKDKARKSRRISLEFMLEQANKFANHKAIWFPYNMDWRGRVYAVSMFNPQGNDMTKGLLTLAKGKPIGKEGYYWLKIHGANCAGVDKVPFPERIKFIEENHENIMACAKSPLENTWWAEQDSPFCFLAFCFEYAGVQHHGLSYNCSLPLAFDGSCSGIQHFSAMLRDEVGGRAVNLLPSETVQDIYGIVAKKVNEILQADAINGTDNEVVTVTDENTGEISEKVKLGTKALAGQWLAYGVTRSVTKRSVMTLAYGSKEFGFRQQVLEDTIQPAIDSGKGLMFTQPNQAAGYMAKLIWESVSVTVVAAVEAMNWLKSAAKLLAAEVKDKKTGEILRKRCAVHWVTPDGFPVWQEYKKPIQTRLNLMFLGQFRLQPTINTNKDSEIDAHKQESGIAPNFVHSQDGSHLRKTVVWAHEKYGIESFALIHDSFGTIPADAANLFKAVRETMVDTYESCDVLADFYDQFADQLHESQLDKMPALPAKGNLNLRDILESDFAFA
Procedure: The target mRNAs are prepared following IVT Reaction Protocol—Cotranscriptional capping described herein.
Ratio of A:U:C:G varies between 1:1:1:0.1 and 1:1:1:1, with the cap added in 10-fold excess to G. • 2. T7 RNA polymerase is added after other components except for water. • 3. Water is added for a total reaction volume of 100 uL. • 4. The mixture is mixed well and spun down in a benchtop centrifuge for 1 minute. • 5. The cocktail is incubated at 37 degrees for 4 hours. • 6. 2.5 uL of RNase free DNase I is added. • 7. The cocktail is incubated at 37° C. for 45 minutes.
As described in this Example, each of A, U, C, and G includes both unmodified and modified NTP. After the IVT reaction is complete, the mixture is cleaned using membrane purification (MegaClear or equivalent), and Oligo dT. Sample concentration is determined using a spectrophotometer, and degradation is quantitated using a bioanalyzer.

eIF4E [3] = molecular target: T1, eIF4E (Homo sapiens, UniProt P06730); experiment: biochemical
T1 sequence (P06730 32-217): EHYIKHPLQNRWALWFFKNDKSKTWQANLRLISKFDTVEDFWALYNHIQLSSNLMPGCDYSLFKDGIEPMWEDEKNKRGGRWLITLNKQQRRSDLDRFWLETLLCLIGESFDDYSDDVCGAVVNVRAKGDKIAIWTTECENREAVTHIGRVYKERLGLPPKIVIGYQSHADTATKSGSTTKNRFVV
Procedure: (§3) A sensor chip SA (GE Healthcare) is docked into a Biacore 3000 instrument.
(§4) Compound concentration series are injected over the immobilized protein serially in increasing concentration. Interaction models are fitted globally to the experimental traces, enabling determination of Kd or KD (binding affinity; unit: M) and possibly kon (on-rate, calculated from the association phase; unit: M^−1s^−1) and koff (off-rate, calculated from the dissociation phase; unit: s^−1).
(§5) A sensor chip (SAD5001 or SA) was docked into a Biacore 3000 instrument, washed with 50 mM NaOH, 1M NaCl. Protein eIF4E was diluted in running buffer (50 mM HEPES, 150 mM KCl, 10 mM MgCl2, 2 mM TCEP) to ˜1 μM. The diluted protein solution was injected for 300-600 seconds. Typical capture levels were 5000-6000 RU.
(§6) Test compounds were solubilized in ddH2O or DMSO to 10 mM. 100 μM stocks were prepared by 100-fold dilution in running buffer (50 mM HEPES, 150 mM KCl, 10 mM MgCl2). Assay was run with or without 1% DMSO.
(§7) Data were analyzed in GeneData. Curve fit was accepted or rejected by looking at the resulting sensorgrams and steady state fits.
(§8) Assay has been validated using running buffer with and without DMSO. […] Further, newly captured protein stabilizes slowly, leading to negative responses during the dissociation phase for compounds injected over newly captured protein.

eIF4E [4] = molecular target: T1, eIF4E; experiment: Binding affinities to eIF4E using surface plasmon resonance (SPR)
Procedure: as §3, §4, §5, §6, §7, §8

[5] = system: CD1-derived primary hepatocytes; experiment: Expression of mCitrine mRNA carrying the cap in primary hepatocytes (FIG. 9); type: cell-based; settings: FIG. 9, reporter mCitrine
[6] = system: Hep3B HCC-derived malignant cells; experiment: Expression of mCitrine mRNA carrying the cap in Hep3B cells (FIG. 9); type: cell-based; settings: FIG. 9, reporter mCitrine
From the text: FIG. 9 is a pair of graphs comparing the expression of mRNAs carrying different cap analogs in human primary hepatocytes to the expression in Hep3B cells (reporter: mCitrine).

eIF4E [7] = molecular target: T1, eIF4E
Procedure: as §3, §4, §5, §6, §7, §8

[8] = system: human primary hepatocytes; experiment: Cell-based expression in human primary hepatocytes of mRNAs carrying the cap analogs; settings: mRNA carrying the cap, 5-methoxy uridine; 008-7 Cap0-like, all other caps Cap1-like
CD-1 mice = experiment: In vivo expression assay, hEPO mRNA in MC3-based LNP; settings: iv bolus 0.05 mg/kg, 6 h after injection, 008-7 Cap0-like, others Cap1-like
Procedure: mRNAs encoding hEPO were synthesized according to the method described in Example 2 above, co-transcriptionally incorporating cap analogs of the disclosure. […] A MC3-based lipid nanoparticle (LNP) formulation of the synthesized mRNA was produced, and was intravenously administered to CD-1 mice (n=3) at a bolus dose of 0.05 mg/kg. The level of hEPO was tested at 6 h, 24 h, or 48 h after injection.

HeLa Lysate [9] = experiment: Cap competition assay in kinetic cell free in vitro translation (free cap analogs); type: biochemical; settings: free cap analog 0-100 uM against Cap1-tipped eGFP modRNA, fluorescence plateau
Procedure: as §1
For competition assays, the total volume of the cell-free translation reaction was increased to 27.8 uL by addition of either water or diluted free CAP analogs in water. The stock concentration of the free CAP analogs was 1 mM. With two-fold dilutions in water, the concentration was reduced sequentially. […] The CAP analogs used in this study were either commercial products serving as reference material (TriLink, San Diego, Calif.) or compounds disclosed herein. It is hypothesized that the small molecule cap analogs interfere with the assembly of the “closed loop” in a Kd-dependent fashion.
After the fluorescent signal in cell-free translation reaction reached a stable plateau, absolute values thereof were transferred to a statistical analysis program (GraphPad Software, La Jolla, Calif.) and curve fitting or IC50 calculations were derived with settings according to the instructions of the manufacturer.
The results from the cap competition assays are illustrated in FIGS. 1A-1C and 2A-2D. In this study, each of the modRNAs used comprises 1-methyl-pseudouridine, which replaces each uridine in the RNA sequence and 5-methyl cytidine, which replaces each cytidine in the RNA sequence. Further, Table 11 includes the IC50 values of certain compounds of the disclosure.

[10] = residence time as listed in Table 12
[11] = residence time as listed in Table 13

| SMILES | Ave norm (mCitrine levels after 3 hours of a cell-free translation assay) (HeLa Lysate [1]) | CFT (norm to conc. & capping & cap1), hEPO levels after 3 hours of a cell-free translation assay (HeLa Lysate [2]) | capping %/100 (T7 RNA Polymerase) | Kd (eIF4E [3]) | koff (eIF4E [7]) | τ (eIF4E [4]; [10]) | τ (eIF4E [4]; [11]) | other results |
| --- | --- | --- | --- | --- | --- | --- | --- | --- |
| CO[C@@H]1[C@H](O)[C@@H](COP(=O)(O)OP(=O)([S-])OP(=O)(O)OC[C@H]2O[C@@H](n3cnc4c(=O)[nH]c(N)nc43)[C@H](O)[C@@H]2O)O[C@H]1n1c[n+](C)c2c(=O)[nH]c(N)nc21 (single isomer, unassigned) [Compound 005-30 (D1)] | 0.44 (D1); | 0.79 (D1) | 0.65 (D1) %/100 | 700 nM | – | – | – | τ (s) (eIF4E [4]; [10]): 15 (D1); s; τ (s) (eIF4E [4]; [11]): 14.9 (D1) s |
| COCCO[C@@H]1[C@H](O)[C@@H](COP(=O)(O)OP(=O)([O-])OP(=O)(O)OC[C@H]2O[C@@H](n3cnc4c(=O)[nH]c(N)nc43)[C@H](O)[C@@H]2O)O[C@H]1n1c[n+](CCOc2ccc(Cl)cc2)c2c(=O)[nH]c(N)nc21 [Compound 005-27] | 1.50 | 3.19 | 0.84 %/100 | 110 nM | 0.025 s⁻¹ | 40 s | 40 s | expression of mRNA carrying the cap in primary hepatocytes [5]: low; expression of mRNA carrying the cap in Hep3B cells [6]: high |
| CO[C@@H]1[C@H](O)[C@@H](COP(=O)(O)OP(=O)(O)OP(=O)(O)OC[C@H]2O[C@@H]([n+]3cn(C)c4c(=O)[nH]c(N)nc43)[C@H](O)[C@@H]2O)O[C@H]1n1cnc2c(=O)[nH]c(N)nc21 [Cap1, m7GpppG(2′-Om), reference compound] | 0.30 | 1.00 | 1 %/100 | – | 0.77 s⁻¹ | 1.3 s | 1.3 s | h-primHeps norm to Capping and Cap1 [8]: 1.00; in vivo hEPO normalized to capping and Cap1 (CD-1 mice): 1.00; Kd (eIF4E [7]): 3000 nM |
| CN1CC(COP(=O)(O)OP(=O)([O-])OP(=O)(O)OC[C@H]2O[C@@H](n3cnc4c(=O)[nH]c(N)nc43)[C@H](O)[C@@H]2O)OC(n2c[n+](CCOc3ccc(Cl)cc3)c3c(=O)[nH]c(N)nc32)C1 (stereo partly drawn) [Compound 006-45] | 0.74 | 0.48 | 0.95 %/100 | – | – | 11.6 s | 11.6 s | – |
| CO[C@H]1[C@@H](O)[C@H](n2c[n+](C)c3c(=O)[nH]c(N)nc32)O[C@@H]1COP(=O)(O)OP(=O)(O)OP(=O)(O)OC[C@H]1O[C@@H](n2cnc3c(=O)[nH]c(N)nc32)[C@H](O)[C@@H]1O [ARCA, m7(3′-Om)GpppG, reference compound] | – | 1.93 | 0.86 %/100 | – | 1.67 s⁻¹ | – | 0.6 s | h-primHeps norm to Capping and Cap1 [8]: 1.52; in vivo hEPO normalized to capping and Cap1 (CD-1 mice): 0.70; Kd (eIF4E [7]): 2000 to 3000 nM |
| C[n+]1cn(C2CN(Cc3ccccc3)CC(COP(=O)(O)OP(=O)([S-])OP(=O)(O)OC[C@H]3O[C@@H](n4cnc5c(=O)[nH]c(N)nc54)[C@H](O)[C@@H]3O)O2)c2nc(N)[nH]c(=O)c21 (stereo partly drawn) [Compound 006-46] | 0.77 | – | – | – | – | 3.4 s | – | – |
| CN(C)CCN1CC(COP(=O)(O)OP(=O)([O-])OP(=O)(O)OC[C@H]2O[C@@H](n3cnc4c(=O)[nH]c(N)nc43)[C@H](O)[C@@H]2O)OC(n2c[n+](C)c3c(=O)[nH]c(N)nc32)C1 (stereo partly drawn) [Compound 006-44] | 0.31 | – | – | – | – | 0.8 s | – | – |
| COc1ccc(CN2CC(COP(=O)([O-])OP(=O)(O)OP(=O)(O)OCC3OC(n4cnc5c(=O)[nH]c(N)nc54)C(O)C3O)OC(n3c[n+](C)c4c(=O)[nH]c(N)nc43)C2)cc1 (stereo not drawn) [Compound 006-26] | 0.50 | – | – | – | – | 3.3 s | – | – |
| COCCO[C@@H]1[C@H](O)[C@@H](COP(=O)(O)OP(=O)([S-])OP(=O)(O)OC[C@H]2O[C@@H](n3cnc4c(=O)[nH]c(N)nc43)[C@H](O)[C@@H]2O)O[C@H]1n1c[n+](CCOc2ccc(Cl)cc2)c2c(=O)[nH]c(N)nc21 (stereo partly drawn) [Compound 005-34] | 2.51 | 2.71 | 0.94 %/100 | 10 nM | 0.02 s⁻¹ | 50 s | 50 s | – |
| BP(=O)(OP(=O)([O-])OC[C@H]1O[C@@H](n2c[n+](C)c3c(=O)[nH]c(N)nc32)[C@H](O)[C@@H]1O)OP(=O)([O-])OC[C@H]1O[C@@H](n2c[n+](C)c3c(=O)[nH]c(N)nc32)[C@H](O)[C@@H]1O [Compound 005-4] | 0.24 | – | – | 700 to 1000 nM and 1000 nM | – | – | – | IC50 (HeLa Lysate [9]): 5000 nM; τ (eIF4E [4]): 4.17 s and 4.2 s; koff (eIF4E [4]; read-out: koff (s^−1)): 0.24 s⁻¹ |
| CO[C@@H]1[C@H](O)[C@@H](COP(=O)(O)OP(=O)([S-])OP(=O)(O)OC[C@H]2O[C@@H](n3cnc4c(=O)[nH]c(N)nc43)[C@H](O)[C@@H]2O)O[C@H]1n1c[n+](C)c2c(=O)[nH]c(N)nc21 (single isomer, unassigned) [Compound 005-30 (D2)] | 0.84 (D2) | 1.66 (D2) | 0.71 (D2) %/100 | 1100 nM | – | – | – | τ (s) (eIF4E [4]; [10]): 10 (D2) s; τ (s) (eIF4E [4]; [11]): 10.4 (D2) s |
| Nc1nc2c(ncn2[C@@H]2O[C@H](COP(=O)(O)OP(=O)([O-])OP(=O)(O)OC[C@H]3O[C@@H](n4c[n+](CCOc5ccc(Cl)cc5)c5c(=O)[nH]c(N)nc54)[C@@H](O)[C@@H]3O)[C@@H](O)[C@H]2O)c(=O)[nH]1 [Compound 005-35] | – | 1.02 | 1 %/100 | – | – | – | 9.1 s | – |
| C[n+]1cn([C@@H]2O[C@H](COP(=O)([O-])OP(=O)([O-])OP(=O)(O)OC[C@H]3O[C@@H](n4c[n+](C)c5c(=O)[nH]c(N)nc54)[C@H](O)[C@@H]3O)[C@@H](O)[C@H]2O)c2nc(N)[nH]c(=O)c21 [Compound 005-10] | – | 0.83 | 0.91 %/100 | 2700 nM and 3000 nM | 0.26 s⁻¹ | – | 3.8 s | IC50 (HeLa Lysate [9]): 14000 nM |
